The source of these data is patent US7736624B2, “Methods and compositions for diagnostic and therapeutic targeting of COX-2” (priority 2006, dated 2010).

Data set [1] concerns the target T1, COX-1 (Mus musculus, UniProt P22437).
T1 sequence (P22437 1-602): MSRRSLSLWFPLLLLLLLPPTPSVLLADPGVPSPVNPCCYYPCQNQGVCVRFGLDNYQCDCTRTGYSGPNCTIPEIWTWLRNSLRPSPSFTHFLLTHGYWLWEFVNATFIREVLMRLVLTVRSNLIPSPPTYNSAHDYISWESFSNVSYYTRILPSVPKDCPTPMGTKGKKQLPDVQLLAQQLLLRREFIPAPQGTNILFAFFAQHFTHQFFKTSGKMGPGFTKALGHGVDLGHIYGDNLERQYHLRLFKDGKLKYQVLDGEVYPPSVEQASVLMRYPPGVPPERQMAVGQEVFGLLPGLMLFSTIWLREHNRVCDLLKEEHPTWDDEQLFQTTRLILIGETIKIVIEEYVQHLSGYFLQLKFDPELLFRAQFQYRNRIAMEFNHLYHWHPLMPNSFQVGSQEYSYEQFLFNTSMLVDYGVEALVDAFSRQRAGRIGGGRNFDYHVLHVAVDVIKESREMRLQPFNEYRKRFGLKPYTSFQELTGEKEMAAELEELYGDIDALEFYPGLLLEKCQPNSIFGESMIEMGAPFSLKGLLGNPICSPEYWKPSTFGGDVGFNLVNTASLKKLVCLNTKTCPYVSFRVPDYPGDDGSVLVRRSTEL
In words: Macrophage assay (RAW264.7), COX-1. The data set is classed as cell-based, murine. An excerpt:
Thus, NSAID derivatives that are identified as potentially useful in the methods described herein can be further tested using, for example, the RAW264.7 murine macrophage cell line. These cells are readily available (for example, from the American Type Culture Collection (ATCC), Manassas, Va., United States of America) and are easily cultured in large numbers. They normally express low levels of COX-1 and very low to undetectable levels of COX-2. Upon exposure to bacterial lipopolysaccharide (LPS), however, COX-2 levels increase dramatically over the ensuing 24 hour period, and the cells produce PGD2 and PGE2 from endogenous arachidonic acid stores (generally, ˜1 nmol/10^7 cells total PG formation). After LPS exposure, the addition of exogenous arachidonic acid results in the formation of additional PGD2 and PGE2 as a result of metabolism by the newly synthesized COX-2.
This system provides a number of approaches for testing the inhibitory potency of COX-2-selective ligands (e.g., inhibitors). In general, following LPS activation, cells can be treated for 30 minutes with the desired concentrations of candidate derivative(s) in DMSO. ^14C-arachidonic acid can be added, and the cells can be incubated for 15 minutes at 37° C. Product formation can be assessed following extraction and TLC separation of the culture medium. Alternatively, the effects of candidate derivatives on PG synthesis from endogenous arachidonic acid can be assessed by incubating cells with desired concentrations of candidate derivatives 30 minutes prior to LPS exposure. Following a 24-hour incubation, medium can be collected and extracted, and the amount of PGD2 and/or PGE2 can be assayed by gas chromatography-mass spectrometry, liquid chromatography-mass spectrometry, or ELISA.

The target of data set [2] is T2, ovine COX-1 (Ovis aries, UniProt P05979).
T2 construct: can be purified from ovine seminal vesicles by standard procedures; from tissue; host or cells: ovine seminal vesicles
T2 sequence (P05979 25-600): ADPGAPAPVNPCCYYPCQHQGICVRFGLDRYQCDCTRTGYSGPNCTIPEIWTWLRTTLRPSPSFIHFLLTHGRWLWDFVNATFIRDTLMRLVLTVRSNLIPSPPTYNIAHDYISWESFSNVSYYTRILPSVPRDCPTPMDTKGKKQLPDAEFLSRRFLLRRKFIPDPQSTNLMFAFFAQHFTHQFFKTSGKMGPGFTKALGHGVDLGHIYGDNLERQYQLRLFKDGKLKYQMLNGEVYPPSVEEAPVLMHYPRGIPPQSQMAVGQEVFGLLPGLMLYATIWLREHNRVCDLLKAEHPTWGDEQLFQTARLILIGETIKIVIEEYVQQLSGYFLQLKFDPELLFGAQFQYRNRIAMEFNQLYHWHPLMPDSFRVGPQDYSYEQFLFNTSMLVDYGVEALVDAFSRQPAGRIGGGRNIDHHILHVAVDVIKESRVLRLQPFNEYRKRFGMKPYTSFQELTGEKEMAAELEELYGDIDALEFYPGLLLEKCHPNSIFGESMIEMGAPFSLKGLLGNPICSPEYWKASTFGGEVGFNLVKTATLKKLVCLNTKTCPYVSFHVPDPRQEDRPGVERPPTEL
In words: IC50 determinations using purified enzymes (TLC assay), COX-1. Particulars: assayed against purified enzymes. The data set is classed as biochemical.

The nature of data set [3]: Fluorescence in buffer. The data set is classed as physicochemical. Particulars: for Fluor. λem: emission; for Fluor. λex: excitation.

A value given as a limit tells only on which side of the number the result lay.

For orientation: IC50 means the concentration at which inhibition is half-maximal. High values mean weaker potency, low ones greater potency. Consider `COc1ccc2c(c1)c(CC(=O)NCCCCNC(=O)c1ccc(C(=O)O)c(-c3c4ccc(=O)cc-4oc4cc(O)ccc34)c1)c(C)n2C(=O)c1ccc(Cl)cc1` [Compound 27qq, N-[(Fluorescein-6-carboxylamido)but-4-yl]-2-[1-(4-chlorobenzoyl)-5-methoxy-2-methyl-1H-indol-3-yl)acetamide], for which the IC50 in data set [1] (Table 3, macrophage assay) is above 5e-06 M; in data set [2] (Table 3), above 25 µM.

As for `COc1ccc2c(c1)c(CC(=O)NCCNS(=O)(=O)c1cccc3c(N(C)C)cccc13)c(C)n2C(=O)c1ccc(Cl)cc1` [Compound 27x], in data set [3], the “Fluor. λem” value is recorded as 493 nm and the “Fluor. λex” value is given as 355 nm. In addition, the IC50 in data set [1] (Table 3, macrophage assay) is above 1e-06 M. Moreover, the IC50 in data set [2] (Table 3) was above 25 µM.

As for `COc1ccc2c(c1)c(CC(=O)NCCCCNC(=O)c1ccc(C(=O)[O-])c(C3=c4cc5c6c(c4Oc4c3cc3c7c4CCCN7CCC3)CCC[N+]=6CCC5)c1)c(C)n2C(=O)c1ccc(Cl)cc1` [Compound 27vv], in data set [3], the “Fluor. λem” value stood at 603 nm and the “Fluor. λex” value is listed as 581 nm. This molecule registered an IC50 in data set [1] (Table 3, macrophage assay) above 5e-06 M. In addition, the IC50 in data set [2] (Table 3) is above 25 µM.

Regarding `CC[N+](CC)=c1ccc2nc3c(cc(NC(=O)CCOCCOCCOCCOCCNC(=O)Cc4c(C)n(C(=O)c5ccc(Cl)cc5)c5ccc(OC)cc45)c4ccccc43)oc-2c1` [Compound 27uu, N-[5-)1-{1-(4-chlorobenzoyl)-5-methoxy-2-methyl-1H-indol-3-yl}-2-6,9,12,15-tetraoxa-3-azaoctadecanamido]-9H-benzo[a]penoxazin-9-ylidene)-N-ethylethanaminium perchlorate], the “Fluor. λem” value in data set [3] came out at 670 nm. In data set [3], the “Fluor. λex” value was determined as 618 nm. The IC50 in data set [1] (Table 3, macrophage assay) is above 2.5e-05 M; in data set [2] (Table 3), above 25 µM.

For the molecule `COc1ccc2c(c1)c(CC(=O)NCCNS(=O)(=O)c1ccc(/N=N/c3ccc(N(C)C)cc3)cc1)c(C)n2C(=O)c1ccc(Cl)cc1` [Compound 27aa, N-(2-Dabsylaminoethyl)-2-{1-(4-chlorobenzoyl)-5-methoxy-2-methyl-1H-indol-3-yl}acetamide], in data set [3], the “Fluor. λem” value amounted to 450 nm and the “Fluor. λex” value is given as 390 nm. In data set [1] (Table 3, macrophage assay), this molecule came in with an IC50 above 2.5e-06 M. This molecule returned an IC50 in data set [2] (Table 3) above 25 µM.

On to `COc1ccc2c(c1)c(CC(=O)NCCCCNC(=O)Cc1ccc(Nc3ccc([N+](=O)[O-])c4nonc34)cc1)c(C)n2C(=O)c1ccc(Cl)cc1` [Compound 27ii, N-([2-{4-(7-nitrobenzo[1,2,5]oxadiazol-4-ylamino)phenyl}acetamido]but-4-yl)-2-{1-(4-chlorobenzoyl)-5-methoxy-2-methyl-1H-indol-3-yl]acetamide], for which the “Fluor. λem” value in data set [3] was 605 nm. Further, in data set [3], the “Fluor. λex” value is recorded as 492 nm. The IC50 in data set [1] (Table 3, macrophage assay) is above 1e-05 M; in data set [2] (Table 3), above 25 µM.

On to `CC[N+](CC)=c1ccc2c(-c3ccccc3)c(C)c(/C=C/C=C3/N(CCCCCC(=O)NCCCCNC(=O)Cc4c(C)n(C(=O)c5ccc(Cl)cc5)c5ccc(OC)cc45)c4ccc(S(=O)(=O)[O-])cc4C3(C)C)oc-2c1` [Compound 27ttt], for which, in data set [3], the “Fluor. λem” value is 731 nm and the “Fluor. λex” value was determined as 710 nm. The IC50 in data set [1] (Table 3, macrophage assay) is above 5e-06 M. In data set [2] (Table 3), this molecule showed a half-inhibitory concentration (IC50) above 25 µM.

Consider `COC(=O)c1cc(-c2ccc(C)cc2)n(-c2ccc(S(N)(=O)=O)cc2)n1` [Compound 30b], for which the IC50 in data set [1] (Table 2, macrophage assay (M)) was above 5e-06 M; in data set [2] (Table 2) it was above 25 µM.

In the case of `COc1ccc2c(c1)c(CC(=O)NCCCCNC(=O)c1ccc(C3=c4cc5c6c(c4Oc4c3cc3c7c4CCCN7CCC3)CCC[N+]=6CCC5)c(C(=O)[O-])c1)c(C)n2C(=O)c1ccc(Cl)cc1` [Compound 27eee], the IC50 in data set [1] (Table 3, macrophage assay) is above 5e-06 M; in data set [2] (Table 3), above 25 µM.
